Drawing on US10189782B2, “Derivatives of indole for the treatment of cancer, viral infections and lung diseases” (BIOKINESIS, priority 2012, dated 2019), this text covers IC50 for 19 molecules.

Where two headings read alike, the source gives them in different places.

Assay [1] addresses T1, Human recombinant MKlp2 motor domain1-519, His tagged (Homo sapiens, UniProt O95235).
T1 construct: Human recombinant MKlp2 motor domain1-519, His tagged; His; purchased Cytoskeleton MP05
T1 sequence (O95235 1-519): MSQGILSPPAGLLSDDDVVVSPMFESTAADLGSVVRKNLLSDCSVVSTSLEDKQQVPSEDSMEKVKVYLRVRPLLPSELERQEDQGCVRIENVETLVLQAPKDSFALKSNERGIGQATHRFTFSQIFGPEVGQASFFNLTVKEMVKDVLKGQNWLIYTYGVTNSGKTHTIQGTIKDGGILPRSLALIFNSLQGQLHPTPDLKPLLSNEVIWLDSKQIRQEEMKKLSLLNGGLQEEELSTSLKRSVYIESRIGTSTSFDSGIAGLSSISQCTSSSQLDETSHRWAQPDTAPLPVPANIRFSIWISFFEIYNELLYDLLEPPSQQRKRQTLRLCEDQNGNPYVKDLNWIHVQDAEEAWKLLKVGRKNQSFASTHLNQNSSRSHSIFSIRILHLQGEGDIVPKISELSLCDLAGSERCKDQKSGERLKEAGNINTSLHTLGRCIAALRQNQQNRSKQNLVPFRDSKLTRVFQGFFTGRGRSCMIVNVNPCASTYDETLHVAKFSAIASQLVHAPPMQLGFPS
Description: Microtubule stimulated ATPase activity of the MKlp2 motor domain (Kinesin ELIPA Assay Kit). Format: biochemical. The note with it: Table 3, 22° C. Here is the method: Evaluation of Inhibitory Effects on the Microtubule Stimulated ATPase Activity of the MKlp2 Motor Domain.
MKlp2 ATPase activity was measured by monitoring real time free phosphate generation using the Kinesin ELIPA Assay Kit. The assay is based upon an absorbance shift (330 nm-360 nm) that occurs when 2-amino-6-mercapto-7-methylpurine ribonucleoside (MESG) is catalytically converted to 2-amino-6-mercapto-7-methylpurine in the presence of inorganic phosphate (Pi). One molecule of Pi will yield one molecule of 2-amino-6-mercapto-7-methylpurine in an essentially irreversible reaction.
All experiments were performed at 22° C.
Condition 1, compound preparation.
The compounds were dissolved in DMSO at 30× the maximum concentration to be tested. […] DMSO solutions were pipetted directly into each well.
Condition 2, reaction's “motor mix”.
The following were mixed sequentially in the specified order at RT to obtain the “motor mix”.
20 mL: 15 mM Pipes-NaOH pH 7.0, 10 mM MgCl2, 30 μM Tx (Buffer 1).
10 mL: 5× MSEG (ELIPA 1 reagent, Cat. # BK051).
10 mL: 2.5 mg/mL porcine brain microtubules (3×10 mg Cat. # MT002-XL resuspended in 12 mL of Buffer 1).
0.5 mL: 100×PNP (ELIPA 2 reagent, cat. # BK051).
Condition 3, reaction initiation.
The motor mix was pipetted into each well to obtain 80% of total volume. The reaction was initiated by adding a 20% of total volume of 5 mM ATP into each well.
The reactions were measured in a SpectraMax M2 (Molecular Devices) set in kinetic mode and 360 nm absorbance wavelength. The start protocol was 5 second rapid circular mixing, 21 readings, 30 seconds apart.

For assay [2], the system named is K562 cells. Description: Cytotoxicity on human cancer cells (WST-1), K562. Format: cell-based. The procedure:
Evaluation of Cytotoxicity Effects on Human Cancer Cells
The effects of the compounds of the invention on the viability of human cancer cells were studied on various human cancer cell lines of differing tissue origins (A549, NCI-H460: lung cancer; MDA-MB-231: breast cancer; HCT-116, HT-29: colon cancer; MIA-PaCa-2: pancreatic cancer; K562: leukaemia). All cell lines were obtained from ATCC or ECACC. Cells were cultured in the culture media described below, under a 37° C., 5% CO2 humidified atmosphere, according to a standard operating procedure.
On D0, the cells were plated in 90 μl in 96 wells plates at densities ranging from 500 to 5,000 cells per well.
Following addition of the test substance the cells were protected from light. The solvents (DMSO and specific control solvent were added at the maximal concentration: 10 μl/well (3 wells/condition)).
On D4, the Cell Proliferation Reagent WST-1 was added to each well (10 μl/well), according to a standard operating procedure. The cells were then incubated for 30 min to 4 h at 37° C.-5% CO2. After these incubations, the 96-well plates were shaken thoroughly for 1 min with Multiskan® EX apparatus (Thermo Labsystems, France). The absorbence was measured at 450 nm, the reference wavelength being 620 nm. The analysis of the results was performed with the Ascent software 2.6 (Thermo Labsystems, France), Microsoft Excel 2003 and GraphPad Prism 4.03 softwares to give the concentration of the compounds that induces the death of 50% of the cells (IC50).
On the technique in general: Formazan colour is commonly taken as a measure of viable cells.

Setting [3] is: Table 4, K562 leukaemia cells, WST-1 on D4, read-out: K562 IC50.

For orientation: IC50 means the point on the concentration scale where inhibition reaches its midpoint. `COc1ccncc1/C=C(\C#N)c1c[nH]c2cc(F)ccc12` [Example 46, (Z)-2-(6-fluoro-1H-indol-3-yl)-3-(4-methoxypyridin-3-yl)acrylonitrile]: the IC50 in assay [1] (read-out: MKIp2 IC50) was determined as 0.12 µM.
On the same count and under the same terms, to `COc1ccncc1/C=C(\C#N)c1c[nH]c2cc(Cl)ccc12` [Example 47, (Z)-2-(6-chloro-1H-indol-3-yl)-3-(4-methoxypyridin-3-yl)acrylonitrile] belongs 0.2 µM.
For `N#C/C(=C\c1cnccc1O)c1c[nH]c2ccc(Cl)cc12` [Example 50, (Z)-2-(5-chloro-1H-indol-3-yl)-3-(4-hydroxypyridin-3-yl)acrylonitrile], in assay [2] (setting [3]), the concentration for half-maximal inhibition (IC50) turned out to be 14.7 µM.
The same measure, in the same setting: as for `N#C/C(=C\c1cc(C#N)ccc1O)c1c[nH]c2ccc(Br)cc12` [Example 51, (Z)-3-(2-(5-bromo-1H-indol-3-yl)-2-cyanovinyl)-4-hydroxybenzonitrile], the figure is 0.5 µM.
The same measure, in the same setting: to `N#C/C(=C\c1cc(C#N)ccc1OC(F)(F)F)c1c[nH]c2ccc(Cl)cc12` [Example 52, (Z)-3-(2-(5-chloro-1H-indol-3-yl)-2-cyanovinyl)-4-(trifluoromethoxy)benzonitrile] belongs 0.85 µM.
The same measure, in the same setting: as for `N#C/C(=C\c1cc(C#N)ccc1OC(F)(F)F)c1c[nH]c2ccc(Br)cc12` [Example 53, (Z)-3-(2-(5-bromo-1H-indol-3-yl)-2-cyanovinyl)-4-(trifluoromethoxy)benzonitrile], the figure is 0.38 µM.
With `COC(=O)CC(=O)n1cc(/C(C#N)=C/c2cnccc2OC)c2cc(Br)ccc21` [Example 59, (Z)-methyl-3-(5-bromo-3-(1-cyano-2-(4-methoxypyridin-3-yl)vinyl)-1H-indol-1-yl)-3-oxopropanoate], in assay [1] (read-out: MKIp2 IC50), the IC50 turned out to be 0.57 µM.
Same read-out and setting: to `COc1ccncc1/C=C(\C#N)c1cn(C(=O)OCCN2CCN(C)CC2)c2ccc(Br)cc12` [Example 62, (Z)-2-(4-methylpiperazin-1-yl)ethyl 5-bromo-3-(1-cyano-2-(4-methoxypyridin-3-yl)vinyl)-1H-indole-1-carboxylate] belongs 0.35 µM.
In the case of `N#CC(=Cc1cccnc1)c1c[nH]c2ccccc12` [W02010/150211-Example 1, reference compound], the IC50 in assay [2] (K562, read-out: K562 IC50 (μM)) worked out at 21.4 µM.
For the molecule `COc1ccc2[nH]cc(C(C#N)=Cc3cccnc3)c2c1` [W02010/150211-Example 4, reference compound], the IC50 in assay [1] (MKIp2 IC50 (μM)) is 4.2 µM.
The same measure, in the same setting: to `CCOc1ccc2[nH]cc(C(C#N)=Cc3cccnc3)c2c1` [W02010/150211-Example 22, reference compound] belongs 5.2 µM; to `CC(C)Oc1ccc2[nH]cc(C(C#N)=Cc3cccnc3)c2c1` [W02010/150211-Example 23, reference compound], 5.2 µM; to `N#CC(=Cc1cccnc1)c1c[nH]c2ccc(Cl)cc12` [W02010/150211-Example 24, reference compound], 1.1 µM.
Same read-out and setting: as for `COc1ccc2c(C(C#N)=Cc3cccnc3)c[nH]c2c1` [W02010/150211-Example 26, reference compound], the figure is 26.5 µM; as for `COc1ccc2[nH]cc(C(C#N)=Cc3ccc(F)nc3)c2c1` [W02010/150211-Example 28, reference compound], 2.4 µM.
With `COc1ccc2[nH]cc(C(C#N)=Cc3cccc(C#N)c3)c2c1` [W02010/150211-Example 30, reference compound], the IC50 in assay [1] (MKIp2 IC50 (μM)) is 4.4 µM.
Still for that read-out and setting: to `COc1ccc2[nH]cc(C(C#N)=Cc3cnccc3C)c2c1` [W02010/150211-Example 31, reference compound] belongs 2.3 µM.
The same measure, in the same setting: to `COc1ccc2[nH]cc(C(C#N)=Cc3cnccc3Cl)c2c1` [W02010/150211-Example 47, reference compound] belongs 1.6 µM; to `COc1ccc2[nH]cc(C(C#N)=Cc3ccc(OC)nc3)c2c1` [W02010/150211-Example 52, reference compound], 12.6 µM.
